Tests used:
MET = MET biochemical kinase assay; design: species or system human; concentration or dose not given beside the values
Summary of the method: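 In this format, tyrosine phosphorylation of plate-captured human MET is followed in vitro after compound addition in ATP/divalent-cation buffer, detected by anti-phosphotyrosine-HRP with TMB substrate.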

EGFR = target: T1, EGFR (Homo sapiens, UniProt P00533); test: EGFR ELISA assay (in vitro kinase activity, EGFR captured from A431 cell lysate); assay type: biochemical; design: concentration or dose not given beside the values
T1 construct: Add 7 ug A431 cell lysate per well (EGFR source); endogenous in cells; host or cells: A431
Summary of the method: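 EGFR from A431 lysate was captured on plates coated with anti-EGFR antibody. Compounds were added 30 min before a 5 min phosphorylation with 3 µM ATP/5 mM MnCl2, which was stopped with 20 mM EDTA. Phosphotyrosine was detected with rabbit anti-phosphotyrosine, then a peroxidase-conjugated secondary and ABTS/H2O2, read at 410 nm.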

T1 sequence (P00533 25-1210): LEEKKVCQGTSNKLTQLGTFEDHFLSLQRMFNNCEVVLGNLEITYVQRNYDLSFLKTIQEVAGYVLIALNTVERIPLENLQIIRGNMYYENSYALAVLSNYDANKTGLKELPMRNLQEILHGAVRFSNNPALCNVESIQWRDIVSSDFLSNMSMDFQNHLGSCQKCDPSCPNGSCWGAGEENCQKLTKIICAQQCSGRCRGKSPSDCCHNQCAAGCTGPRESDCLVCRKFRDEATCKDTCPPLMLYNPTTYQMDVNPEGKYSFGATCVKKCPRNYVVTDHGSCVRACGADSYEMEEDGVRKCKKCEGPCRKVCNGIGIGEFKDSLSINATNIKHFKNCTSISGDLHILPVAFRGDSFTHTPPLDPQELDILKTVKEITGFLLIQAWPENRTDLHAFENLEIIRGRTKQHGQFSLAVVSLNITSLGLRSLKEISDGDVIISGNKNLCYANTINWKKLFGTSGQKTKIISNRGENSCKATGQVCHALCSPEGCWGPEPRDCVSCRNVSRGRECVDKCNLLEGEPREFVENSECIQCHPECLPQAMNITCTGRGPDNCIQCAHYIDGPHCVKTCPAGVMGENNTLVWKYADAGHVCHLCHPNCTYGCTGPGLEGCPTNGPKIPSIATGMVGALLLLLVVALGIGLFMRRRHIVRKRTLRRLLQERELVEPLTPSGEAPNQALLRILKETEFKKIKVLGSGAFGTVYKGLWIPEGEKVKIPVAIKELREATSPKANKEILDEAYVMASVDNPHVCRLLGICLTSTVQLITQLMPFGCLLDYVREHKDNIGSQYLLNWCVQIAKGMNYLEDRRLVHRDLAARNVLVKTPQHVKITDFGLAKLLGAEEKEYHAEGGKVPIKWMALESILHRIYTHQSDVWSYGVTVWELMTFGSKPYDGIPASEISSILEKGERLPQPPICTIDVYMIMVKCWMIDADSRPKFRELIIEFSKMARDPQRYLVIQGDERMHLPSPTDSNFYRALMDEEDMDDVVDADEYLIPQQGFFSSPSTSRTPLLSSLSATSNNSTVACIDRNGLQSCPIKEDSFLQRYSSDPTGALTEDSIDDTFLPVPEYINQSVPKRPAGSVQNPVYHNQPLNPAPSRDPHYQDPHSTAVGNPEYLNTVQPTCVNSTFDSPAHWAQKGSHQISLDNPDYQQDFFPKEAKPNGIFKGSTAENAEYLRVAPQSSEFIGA

Row | Structure (SMILES) | Met Kinase % Inhibition (MET) [%] | Biochem EGFR %Inhibition (EGFR) [%]
1 | O=C1Nc2ccc(S(=O)(=O)Nc3ccc(C(F)(F)F)cc3)cc2C1=Cc1cc(Br)cc(Br)c1O [10734/E07] | 100.8 | 82.4
2 | O=C1Nc2ccc(I)cc2C1=Cc1ccc(O)cc1 [10719/B07] | 52.2 | 23.7
3 | CN(C)c1ccc(C=C2C(=O)Nc3ccc(I)cc32)cc1 [10719/B08] | 33.2 | 42.3
4 | O=C1Nc2ccc(S(=O)(=O)N3CCOCC3)cc2C1=Cc1cc(Cl)ccc1O [10734/F04] | 76.5 | 3.9
5 | O=C1Nc2ccc(S(=O)(=O)N3CCOCC3)cc2C1=Cc1cc(Cl)cc(Cl)c1O [10734/F03] | 86.8 | 24.8
6 | O=C1Nc2ccc(I)cc2C1=Cc1cccc([N+](=O)[O-])c1 [10719/B10] | 53.4 | -1.2
7 | O=C1Nc2ccc(CCCl)cc2C1=Cc1ccc(Cl)c([N+](=O)[O-])c1 [10718/G08] | 17.5 | -8.3
8 | CCOc1ccc(C=C2C(=O)Nc3ccc(I)cc32)cc1OC [10719/B02] | 47.0 | 29.0
9 | O=C1Nc2ccc(S(=O)(=O)N3CCOCC3)cc2C1=Cc1ccco1 [10718/F10] | 23.7 | -12.0
10 | CC(C)(C)c1ccc(C=C2C(=O)Nc3ccc(S(=O)(=O)Nc4ccc(C(F)(F)F)cc4)cc32)cc1 [10734/E10] | 27.9 | -5.0
11 | CCOC(=O)c1cc(C=C2C(=O)Nc3ccc(CCCl)cc32)oc1C [10718/G06] | 61.0 | -18.7
12 | O=C1Nc2ccc(I)cc2C1=Cc1ccc(F)cc1 [10717/B05] | 87.4 | 31.7
13 | O=C1Nc2ccc(I)cc2C1=Cc1ccc(O)c(O)c1 [10719/B03] | 85.8 | 59.5
14 | CC(C)(C)c1ccc(C=C2C(=O)Nc3ccc(CCCl)cc32)cc1 [10734/G10] | 19.3 | 3.8
15 | O=C1Nc2ccc(S(=O)(=O)N3CCOCC3)cc2C1=Cc1ccc([N+](=O)[O-])cc1 [10734/F06] | 64.2 | -17.1
16 | Cc1c(O)ccc(C=C2C(=O)Nc3ccc(S(=O)(=O)N4CCOCC4)cc32)c1O [10718/F09] | 52.7 | -9.5
17 | O=C1Nc2ccc(S(=O)(=O)Nc3ccc(C(F)(F)F)cc3)cc2C1=Cc1ccc(O)c(Br)c1 [10734/E09] | 96.2 | 73.0
18 | O=C1Nc2ccc(I)cc2C1=Cc1ccc(F)cc1C(F)(F)F [10719/B11] | 36.5 | -23.9
19 | O=C1Nc2c(Br)cc(Br)cc2C1=Cc1cccc([N+](=O)[O-])c1 [10719/A10] | 13.4 | 8.2
20 | O=C1Nc2ccc(I)cc2C1=Cc1ccc(F)cc1Cl [10719/B09] | 23.5 | -17.7
21 | CCc1c(C)[nH]c(C=C2C(=O)Nc3ccc(I)cc32)c1C [10719/B05] | 33.6 | 35.9
22 | O=C1Nc2ccc(CCCl)cc2C1=Cc1ccc([N+](=O)[O-])cc1 [10734/G06] | 43.1 | 12.5
23 | O=C1Nc2ccc(I)cc2C1=Cc1cccs1 [10717/B03] | 90.5 | 7.3
24 | O=C1Nc2ccc(CCCl)cc2C1=Cc1ccc2ccccc2c1O [10718/G04] | 78.1 | 15.8
25 | COc1ccc(C=C2C(=O)Nc3ccc(Br)c(C)c32)c(OC)c1 [10719/C04] | 14.7 | 14.4
26 | COc1ccc(C=C2C(=O)Nc3c(Br)cc(Br)cc32)c(OC)c1 [10719/A04] | 22.9 | 43.7
27 | Cc1c(Br)ccc2c1C(=Cc1ccc(O)cc1)C(=O)N2 [10719/C07] | 7.7 | 14.4
28 | CCOc1ccc(C=C2C(=O)Nc3c(Br)cc(Br)cc32)cc1OC [10719/A02] | 40.9 | 43.0

Row | Structure (SMILES) | Met Kinase % Inhibition (MET) [%] | Biochem EGFR %Inhibition (EGFR) [%]
29 | O=C1Nc2ccc(CCCl)cc2C1=Cc1cc(Cl)cc(Cl)c1O [10734/G03] | 93.4 | 82.8
30 | O=C1Nc2ccc(S(=O)(=O)Nc3ccc(C(F)(F)F)cc3)cc2C1=Cc1ccc([N+](=O)[O-])cc1 [10734/E06] | 50.6 | 6.3
31 | O=C1Nc2ccc(S(=O)(=O)N3CCOCC3)cc2C1=Cc1cccc(F)c1O [10734/F08] | 66.3 | -23.6
32 | CN(C)c1ccc(C=C2C(=O)Nc3c(Br)cc(Br)cc32)cc1 [10719/A08] | 75.5 | 47.3
33 | COC(=O)c1[nH]c(C)c(C=C2C(=O)Nc3ccc(CCCl)cc32)c1C(=O)OC [10718/G07] | 52.0 | -21.3
34 | O=C1Nc2ccc(CCCl)cc2C1=Cc1ccco1 [10718/G10] | 10.8 | -7.5
35 | Cn1cccc1C=C1C(=O)Nc2ccc(I)cc21 [10717/B04] | 70.0 | 10.3
36 | Cc1c(O)ccc(C=C2C(=O)Nc3ccc(CCCl)cc32)c1O [10718/G09] | 27.0 | -15.4
37 | COc1cc(OC)c(C=C2C(=O)Nc3ccc(I)cc32)c(OC)c1 [10719/B06] | 22.5 | -0.5
38 | COc1cc(Br)c(O)c(C=C2C(=O)Nc3ccc(CCCl)cc32)c1 [10718/G03] | 77.9 | 57.3
39 | COc1cc(OC)c(C=C2C(=O)Nc3c(Br)cc(Br)cc32)c(OC)c1 [10719/A06] | -7.0 | 18.2
40 | COc1cc(Br)c(O)c(C=C2C(=O)Nc3ccc(S(=O)(=O)N4CCOCC4)cc32)c1 [10718/F03] | 87.9 | 22.5
41 | CCOC(=O)CCc1c(C(=O)OCC)[nH]c(C=C2C(=O)Nc3ccc(CCCl)cc32)c1CC(=O)OCC [10718/G05] | 60.3 | 2.8
42 | O=C1Nc2ccc(S(=O)(=O)Nc3ccc(C(F)(F)F)cc3)cc2C1=Cc1cc(Cl)ccc1O [10734/E04] | 88.9 | -7.8
43 | CCOC(=O)c1c(C)[nH]c(C=C2C(=O)Nc3ccc(S(=O)(=O)N4CCOCC4)cc32)c1C [10718/F02] | 66.7 | 17.8
44 | Cc1c(Br)ccc2c1C(=Cc1ccc(F)cc1Cl)C(=O)N2 [10719/C09] | 8.9 | -0.1
45 | Cc1c(Br)ccc2c1C(=Cc1ccc(O)c(O)c1)C(=O)N2 [10719/C03] | 69.1 | 60.6
46 | O=C1Nc2ccc(S(=O)(=O)Nc3ccc(C(F)(F)F)cc3)cc2C1=Cc1cccc(F)c1O [10734/E08] | 89.1 | 24.2
47 | COC(=O)c1[nH]c(C)c(C=C2C(=O)Nc3ccc(S(=O)(=O)N4CCOCC4)cc32)c1C(=O)OC [10718/F07] | 67.9 | -6.3
48 | Cc1c(Br)ccc2c1C(=Cc1ccc(N(C)C)cc1)C(=O)N2 [10719/C08] | 57.5 | -10.2
49 | CCOC(=O)c1c(C)[nH]c(C=C2C(=O)Nc3ccc(CCCl)cc32)c1C [10718/G02] | 67.7 | 49.2
50 | O=C1Nc2c(Br)cc(Br)cc2C1=Cc1ccc(F)cc1C(F)(F)F [10719/A11] | 34.9 | 10.5
51 | CCOc1ccc(C=C2C(=O)Nc3ccc(Br)c(C)c32)cc1OC [10719/C02] | 41.3 | 10.2
52 | O=C1Nc2ccc(S(=O)(=O)N3CCOCC3)cc2C1=Cc1ccc([N+](=O)[O-])o1 [10718/F11] | 31.3 | -3.9
53 | O=C1Nc2c(Br)cc(Br)cc2C1=Cc1ccc(O)cc1 [10719/A07] | 68.1 | 15.5
54 | CC(C)(C)c1ccc(C=C2C(=O)Nc3ccc(S(=O)(=O)N4CCOCC4)cc32)cc1 [10734/F10] | 44.8 | -8.3
55 | O=C1Nc2ccc(CCCl)cc2C1=Cc1ccc(O)c(Br)c1 [10734/G09] | 84.7 | 21.4

Reference: EP1247803A2, “Indolinone compounds suitable for modulation of protein kinases” (Sugen, Inc., priority 1996, dated 1998)
